What was measured:
Conditions in all cases: 48 h
[1] = tested on: SEM cells; assay: cell viability relative to DMSO control; higher = less cytotoxic
Outline: (§1)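 Cells were incubated for 48 h at 37°C before CellTiter-Glo One luminescence was read. The cells were NOMO1 or SEM (500 cells/well) or P12-Ichikawa (1000 cells/well) leukemia cells, adapted for at least four passages in each medium and seeded in 1536-well plates (5 μl). Dosing used library compounds in DMSO applied by pin over 11 threefold points, 47 μM to 0.79 nM. Viability is the per-plate percentage of DMSO wells, with cell-free wells as background.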

[2] = tested on: NOMO1; assay: AUC of viability dose-response curve (% viability x log10 dose units); higher = less sensitive
Outline: (§2)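 Medium-adapted leukemia cells in 1536-well plates, at 500 or 1000 cells/well, were incubated for 48 h at 37°C with library compounds in DMSO at 11 threefold doses from 47 μM to 0.79 nM. CellTiter-Glo One luminescence normalised per plate to DMSO and cell-free wells was fitted with a four-parameter log-logistic model over log10 doses. Area under the curve was integrated from this fit by trapezoidal rule, with curves beyond full viability scaled and failed quality-control curves removed.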

[3] = tested on: P12-Ichikawa; assay: as above
Outline: as §2

[4] = tested on: SEM cells; assay: as above
Outline: as §2

[5] = tested on: NOMO1; assay: cell viability relative to DMSO control; higher = less cytotoxic
Outline: as §1

[6] = tested on: P12-Ichikawa; assay: as above
Outline: as §1

CC(=O)O[C@H]1C[C@@H]2CC[C@@H]3[C@H](CC[C@@]4(C)[C@H]3C[C@H]([N+]3(C)CCCCC3)[C@@H]4OC(C)=O)[C@@]2(C)C[C@@H]1N1CCCCC1
[1], HPLM + 10% dialyzed FBS
Conditions	cell viability [%]
0.000781 µM	124
0.00234 µM	124
0.00702 µM	138
0.0211 µM	123
0.0632 µM	146
0.19 µM	144
0.569 µM	120
1.71 µM	137
5.12 µM	132
15.4 µM	125
46.1 µM	110

AUC of viability dose-response curve
Conditions	[2]	[3]	[4]
HPLM + 10% dialyzed FBS	454	464	470
RPMI 5 mM glucose + 10% FBS	438	466	465
RPMI 5 mM glucose + 10% dialyzed FBS	467	469	466

NC/1=N/[C@]2(COC[C@H]2CS1)C3=CC(=CC=C3F)NC(=O)C4=NC=C(F)C=C4
cell viability [%], [1]
Conditions	HPLM + 10% dialyzed FBS	RPMI 5 mM glucose + 10% FBS
0.000781 µM	90.8	119
0.00234 µM	111	120
0.00702 µM	131	129
0.0211 µM	127	135
0.0632 µM	132	138
0.19 µM	140	149
0.569 µM	130	127
1.71 µM	135	141
5.12 µM	136	155
15.4 µM	147	29
46.1 µM	110	7.7

AUC of viability dose-response curve
Conditions	[2]	[3]	[4]
HPLM + 10% dialyzed FBS	324	350	461
RPMI 5 mM glucose + 10% FBS	302	348	417
RPMI 5 mM glucose + 10% dialyzed FBS	313	374	471

CN1CCN(c2ccc(C(=O)Nc3n[nH]c4ccc(Cc5cc(F)cc(F)c5)cc34)c(NC3CCOCC3)c2)CC1
AUC of viability dose-response curve
Conditions	HPLM + 10% dialyzed FBS	RPMI 5 mM glucose + 10% FBS	RPMI 5 mM glucose + 10% dialyzed FBS
[3]	440	440	404
[4]	341	352	354

C=CC[C@@H]1/C=C(\C)C[C@H](C)C[C@H](OC)[C@H]2O[C@@](O)(C(=O)C(=O)N3CCCC[C@H]3C(=O)O[C@H](/C(C)=C/[C@@H]3CC[C@@H](O)[C@H](OC)C3)[C@H](C)[C@@H](O)CC1=O)[C@H](C)C[C@@H]2OC
[1], HPLM + 10% dialyzed FBS
Conditions	cell viability [%]
0.000781 µM	102
0.00234 µM	125
0.00702 µM	131
0.0211 µM	123
0.0632 µM	115
0.19 µM	111
0.569 µM	107
1.71 µM	74.9
5.12 µM	60.9
15.4 µM	30.8
46.1 µM	100

AUC of viability dose-response curve
Conditions	[2]	[3]	[4]
HPLM + 10% dialyzed FBS	412	466	400
RPMI 5 mM glucose + 10% FBS	453	448	376
RPMI 5 mM glucose + 10% dialyzed FBS	436	449	362

CN(C)CCc1ccc(O)cc1
[1], HPLM + 10% dialyzed FBS
Conditions	cell viability [%]
0.000781 µM	114
0.00234 µM	120
0.00702 µM	134
0.0211 µM	130
0.0632 µM	137
0.19 µM	135
0.569 µM	116
1.71 µM	140
5.12 µM	113
15.4 µM	135
46.1 µM	110

AUC of viability dose-response curve
Conditions	[2]	[3]	[4]
HPLM + 10% dialyzed FBS	454	448	471
RPMI 5 mM glucose + 10% FBS	460	446	455
RPMI 5 mM glucose + 10% dialyzed FBS	461	450	471

O=[S+]([O-])(CC1CS1)c1ccc(Oc2ccccc2)cc1 (stereo not drawn)
AUC of viability dose-response curve
Conditions	[2]	[3]	[4]
HPLM + 10% dialyzed FBS	448	462	451
RPMI 5 mM glucose + 10% FBS	461	445	437
RPMI 5 mM glucose + 10% dialyzed FBS	435	447	450

CN(NC(=O)CC(=O)NN(C)C(=S)c1ccccc1)C(=S)c1ccccc1
cell viability [%]
Conditions	[1]	[5]	[6]
HPLM + 10% dialyzed FBS, 0.000781 µM	84.1	85.2	90.7
HPLM + 10% dialyzed FBS, 0.00234 µM	89.7	101	88.6
HPLM + 10% dialyzed FBS, 0.00702 µM	98.9	91.7	91.7
HPLM + 10% dialyzed FBS, 0.0211 µM	83.7	111	88.1
HPLM + 10% dialyzed FBS, 0.0632 µM	15.8	52.3	58.8
HPLM + 10% dialyzed FBS, 0.19 µM	4.39	21.7	31.4
HPLM + 10% dialyzed FBS, 0.569 µM	3.48	3.16	4.03
HPLM + 10% dialyzed FBS, 1.71 µM	3.79	4.21	3.29
HPLM + 10% dialyzed FBS, 5.12 µM	4.13	4.19	3.87
HPLM + 10% dialyzed FBS, 15.4 µM	3.69	4.38	4.02
HPLM + 10% dialyzed FBS, 46.1 µM	4.7	6.98	38.3
RPMI 5 mM glucose + 10% FBS, 0.000781 µM	112	86	75.8
RPMI 5 mM glucose + 10% FBS, 0.00234 µM	116	80.2	86.9
RPMI 5 mM glucose + 10% FBS, 0.00702 µM	117	97.5	86.6
RPMI 5 mM glucose + 10% FBS, 0.0211 µM	120	95.2	90.8
RPMI 5 mM glucose + 10% FBS, 0.0632 µM	18.3	53.4	56.8
RPMI 5 mM glucose + 10% FBS, 0.19 µM	6.81	16.7	24.1
RPMI 5 mM glucose + 10% FBS, 0.569 µM	5.75	3.21	2.71
RPMI 5 mM glucose + 10% FBS, 1.71 µM	5.74	3.39	2.73
RPMI 5 mM glucose + 10% FBS, 5.12 µM	6.44	4.47	3.65
RPMI 5 mM glucose + 10% FBS, 15.4 µM	5.8	6.75	3.06
RPMI 5 mM glucose + 10% FBS, 46.1 µM	5.63	15.8	42.1
RPMI 5 mM glucose + 10% dialyzed FBS, 0.000781 µM	78.8	83.4	92.4
RPMI 5 mM glucose + 10% dialyzed FBS, 0.00234 µM	75.8	89.2	89.9
RPMI 5 mM glucose + 10% dialyzed FBS, 0.00702 µM	80.7	82.1	102
RPMI 5 mM glucose + 10% dialyzed FBS, 0.0211 µM	93.1	94.6	101
RPMI 5 mM glucose + 10% dialyzed FBS, 0.0632 µM	10.5	39	58.4
RPMI 5 mM glucose + 10% dialyzed FBS, 0.19 µM	5.14	10.7	20.1
RPMI 5 mM glucose + 10% dialyzed FBS, 0.569 µM	4.03	2.4	3.2
RPMI 5 mM glucose + 10% dialyzed FBS, 1.71 µM	4.74	2.7	2.92
RPMI 5 mM glucose + 10% dialyzed FBS, 5.12 µM	4.6	3.68	3.18
RPMI 5 mM glucose + 10% dialyzed FBS, 15.4 µM	4.37	2.79	3.13
RPMI 5 mM glucose + 10% dialyzed FBS, 46.1 µM	5.18	9.44	31.3

AUC of viability dose-response curve
Conditions	HPLM + 10% dialyzed FBS	RPMI 5 mM glucose + 10% FBS	RPMI 5 mM glucose + 10% dialyzed FBS
[2]	207	197	178
[3]	216	204	217

NC\1=N\C(=O)N(\C=C1)[C@@H]2O[C@H](CO)[C@@H](O)[C@H]2O
cell viability [%], [1]
Conditions	HPLM + 10% dialyzed FBS	RPMI 5 mM glucose + 10% FBS	RPMI 5 mM glucose + 10% dialyzed FBS
0.000781 µM	78.4	86.3	83.6
0.00234 µM	93.7	102	101
0.00702 µM	119	123	125
0.0211 µM	98.3	90.4	94.5
0.0632 µM	117	135	140
0.19 µM	131	143	138
0.569 µM	132	143	154
1.71 µM	115	144	152
5.12 µM	111	127	154
15.4 µM	125	147	153
46.1 µM	75.3	64.7	46.8

AUC of viability dose-response curve
Conditions	[2]	[3]	[4]
HPLM + 10% dialyzed FBS	417	467	452
RPMI 5 mM glucose + 10% FBS	463	471	443
RPMI 5 mM glucose + 10% dialyzed FBS	466	469	438

Source: the supplement of paper PMC11451515
